Assay results published in publication PMC11510591, “In Vitro Evaluation of Pharmacokinetic Properties of Selected Dual COX-2 and 5-LOX Inhibitors” (Pharmaceuticals, 2024).
“And” between values parts separate entries of the source, which are not always exact repeats. Identical values can stand only once. Marks after values point to notes of the source that are not given here.

How the values were obtained:
[1] = target: T1, human serum albumin (HSA) (Homo sapiens, UniProt P02768); assay: Differential pulse voltammetry (DPV), interaction with HSA; assay type: binding; settings: compound 0.05 mmol/L, PBS pH 7.4, HSA 0.05–10 μmol/L; for fraction unbound at 0.05 mmol/L: human, human serum albumin solution in PBS, read-out: % Bound Drug (converted)
T1 construct: purchased Sigma-Aldrich
T1 sequence (P02768 25-609): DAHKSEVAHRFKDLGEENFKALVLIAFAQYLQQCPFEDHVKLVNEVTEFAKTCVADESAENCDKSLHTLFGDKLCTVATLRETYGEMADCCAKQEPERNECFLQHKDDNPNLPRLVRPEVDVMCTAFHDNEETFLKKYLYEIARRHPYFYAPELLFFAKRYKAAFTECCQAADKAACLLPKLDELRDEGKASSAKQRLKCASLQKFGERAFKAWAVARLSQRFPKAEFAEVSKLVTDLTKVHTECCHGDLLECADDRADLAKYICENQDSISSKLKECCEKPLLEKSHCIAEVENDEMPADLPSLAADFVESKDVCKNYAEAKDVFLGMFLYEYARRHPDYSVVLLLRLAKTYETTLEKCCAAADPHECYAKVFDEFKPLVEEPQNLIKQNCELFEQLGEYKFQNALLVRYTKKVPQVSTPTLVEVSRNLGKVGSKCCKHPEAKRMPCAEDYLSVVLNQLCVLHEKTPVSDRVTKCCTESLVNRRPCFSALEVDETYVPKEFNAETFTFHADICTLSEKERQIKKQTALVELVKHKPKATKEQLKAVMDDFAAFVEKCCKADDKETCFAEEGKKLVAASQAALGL
Description: The electrochemical oxidation of the tested compounds at a concentration of 0.05 mmol/L in PBS buffer pH 7.4 was investigated by differential pulse voltammetry (DPV). […] For all tested compounds, a preliminary study of the interaction with HSA was performed at a concentration of 0.05 mmol/L and different HSA concentrations (0.05–10 μmol/L) using DPV. […] It has been reported that the shift in the potential of an electroactive ligand is a suitable criterion to determine the mode of the macromolecule–ligand interaction. In this context, a positive shift in potential is an indication of hydrophobic interaction of investigated compounds with HSA [34]. The decrease in peak current could be due to the formation of a non-electroactive supramolecular compound by the drug–protein interaction, which reduces the concentration of free drug.
The voltammetric measurements were carried out with the µAutolab analyzer (EcoChemie, Utrecht, The Netherlands). A three-electrode system with a GCE working electrode, an Ag/AgCl reference electrode, and a Pt-auxiliary electrode was used. Before each experiment, the GCE was manually polished with an aqueous slurry of Al2O3 powder (particle size of 0.05 μm) on a smooth polishing pad, sonicated in deionized water, and then treated in absolute ethanol. Phosphate buffer saline (PBS) pH 7.4 was used as the supporting electrolyte. The experiments were carried out with deaerated PBS buffer. A stock solution of HSA in PBS at a concentration of 0.1 mmol/L was used. […] The interaction between tested compounds and HSA was examined in PBS solution, using solutions of tested compounds in a concentration of 0.05 mmol/L and HSA solution with a concentration in the range of 0.05–10 μmol/L.
The percentage of free compound (Equation (4)) was calculated from the ratio of the current intensity (IINT) for a given compound concentration (0.05 mmol/L) in the presence of albumin to the signal obtained at the same compound concentration only in the presence of the supporting electrolyte (PBS buffer) (IC).

[2] = Stability in acidic medium (0.01 M HCl); assay type: physicochemical; settings: for The Decrease in Peak Area (%): 0.01 M HCl pH 2, 2 h; for Peak Area, t: 0.01 M HCl pH 2, after 2 h; for Peak Area, t0: 0.01 M HCl pH 2, start of incubation
Description: In order to test gastric stability, compounds were incubated in 0.01 M HCl (pH = 2) for 2 h. Moreover, 0.01 M HCl was chosen because this acid is naturally present in the stomach and simulates its pH (between 1 and 3), while incubation time (2 h) corresponds to the average retention of drugs in the stomach after an oral administration. Peak areas at the beginning (t0) and at the end of the incubation (t) and the decrease in peak areas between these two time points are presented in Table 5.
Acidic medium was simulated by a 0.01 M HCl solution, which was prepared by diluting 0.1 M HCl with distilled water. Stock solutions of tested compounds (5 mM DMSO solutions) were diluted with the medium to obtain a concentration of 0.05 mM. Tested compounds were investigated immediately after preparation (t0) and after a defined incubation time (t) by injecting these solutions into the HPLC chromatograph in duplicates (the HPLC method used was the same as described in Section 3.3.1). The difference between peak areas at t0 and t time points and the eventual occurrence of additional chromatographic peaks after incubation were analyzed.

zebrafish embryos = test system: zebrafish embryos; set-up: method as in PMID 38931946; settings: at therapeutic doses; cited from earlier work
[3] = target: T1, human serum albumin (HSA); assay type: binding; settings: CHIRALPAK HSA column, ammonium acetate buffer pH 7.0/acetonitrile 85:15, 25 °C
Description: Recently, interactions of many newly synthesized structurally diverse compounds with HSA were successfully studied using this technique. The degree of binding of the tested compounds to HSA was evaluated based on their retention behavior on the stationary phase modified with HSA. The logarithmic values of retention factors (logk) were used to evaluate indirectly and compare the drug–HSA interaction.
HPAC analysis was performed on an Agilent 1200 Series chromatograph (Agilent Technologies, Santa Clara, CA, USA). […] The mobile phase consisted of ammonium acetate buffer (pH 7.0; 0.01 M) and acetonitrile (85:15, v/v). The flow rate was 0.6 mL/min, the temperature was set to 25 °C, and the detection of tested compounds was carried out at 283 nm. Tested compounds were dissolved in DMSO (at a concentration of 1 mg/mL), further diluted with the mobile phase to a final concentration of 0.05 mg/mL, and analyzed in triplicate. The HPAC conditions were selected not only with the aim of achieving satisfactory retention characteristics of all synthesized compounds but also taking into account recommendations of a column manufacturer. Retention factors were calculated using Equation (1), where t0 (column dead time) was the retention time of DMSO at 220 nm.

ΔE, DPV peak potential shift after interaction with HSA [1] [mV] | fraction unbound at 0.05 mmol/L [1] | The Decrease in Peak Area (%) [2] | Peak Area, t [2] | Peak Area, t0 [2] | Retention Factors (logk) [3] | SMILES | toxic effects on zebrafish embryos (zebrafish embryos)
7 | 0.292 | 1.63 (p = 0.073) % | 10.83 ± 0.03 | 11.01 ± 0.02 | – | CC(=O)N(O)C(C)c1ccc(CC(C)C)cc1 (stereo not drawn) [Compound 11] | –
30 | 0.198 | 0.34 (p = 0.4501) % | 6.55 ± 0.07 | 6.57 ± 0.12 | – | CC(NC(=O)NO)c1ccc(-c2ccccc2)c(F)c1 (stereo not drawn) [Compound 2] | –
34 | 0.267 | 0.07 (p = 0.2839) ^a % | 8.27 ± 0.00 | 8.28 ± 0.01 | – | COc1ccc2c(c1)c(CNC(=O)NO)c(C)n2C(=O)c1ccc(Cl)cc1 [Compound 1] | –
13 | 0.296 | 0.24 (p = 0.4399) % | 48.54 ± 0.39 | 48.66 ± 0.49 | 2.03 ± 0.02 | COc1ccc2cc(C(C)N(O)C(C)=O)ccc2c1 (stereo not drawn) [Compound 12] | –

SMILES | ΔE, DPV peak potential shift after interaction with HSA [1] [mV] | fraction unbound at 0.05 mmol/L [1] | The Decrease in Peak Area (%) [2] | Peak Area, t [2] | Peak Area, t0 [2] | Retention Factors (logk) [3] | toxic effects on zebrafish embryos (zebrafish embryos)
O=C(NO)NCc1ccccc1Nc1c(Cl)cccc1Cl [Compound 3] | 29 | 0.198 | 2.33% and 2.33 (p = 0.0159) % | 6.27 ± 0.10 | 6.42 ± 0.11 | – | did not show toxic effects
